System: mouse liver microsomes without NADPH, percent remaining
Assay: High Content Assay for Compounds that inhibit the Assembly of the Perinucleolar Compartment: Mouse Liver Microsome Stability without NADPH
Details: stronger effect = lower value
Source text: The perinucleolar compartment (PNC) is a non-membrane-bound nuclear subdomain that is associated with but structurally distinct from the nucleolus. The PNC is a heritable trait, in which the number of PNCs per cell in daughter cells often mimics that of their mother cells. The PNC is heterogeneous in shape, is stable through interphase, disassembles during mitosis, and reassembles in early G1. The PNC is concentrated with newly synthesized RNA polymerase III (pol III) RNAs (MRP RNA, RNAse P H1 RNA, hY RNAs[hY1, 2, 5], Alu RNA, and SRP [7SL] RNA) and RNA binding proteins (nucleolin, PTB, CUG-BP, KSRP, Raver1, Raver2, and Rod).
Extensive in vitro studies have shown that the PNC is unique to tumor cells and preferentially forms in tumor cells derived from solid tissues. Examination of cancer cell lines from various origins and malignant capacities has shown that PNC prevalence correlates with the malignancy of tumors and has the potential to be developed as a pan-cancer prognostic marker.
Mouse liver microsomes are generated from lysed mouse liver. Liver microsomes contain many drug metabolizing enzymes, including Cytochome P-450s and flavin-containing monooxygenases. Because drug metabolism is major way of drug clearance, this is an important result. […]
1uM of compound in incubated in mouse liver microsome; the reference compound is ketanserin. […] Samples are analyzed with LC-MS/MS.

Compound: N=c1c2c(-c3ccccc3)c(-c3ccccc3)n(Cc3ccccc3)c2ncn1C1CCC(O)CC1 (stereo unspecified)
- percent remaining: 106%
